Assays:
Format in all cases: cell-based, Escherichia coli
E. coli C biofilm = assay: Biofilm Destruction Test (biofilm persistence, crystal violet); conditions: for effect on biofilm persistence / survival: two days biofilms, FIG. 6; for increase in biofilm persistence: 2 days old biofilm, 18 h, FIG. 7
Experimental: Biofilm Destruction Test—The biofilm destruction was determined. Biofilms were grown for 24 or 48 h as described above. After that time planktonic cells were removed, and biofilms were washed twice with 250 μL of sterile phosphate buffered saline (PBS) solution. Two hundred microliters of fresh LB medium with specific concentration of the tested compounds were dispensed into wells. After 18 h incubation at 37° C., the amount of biofilm was measured by CV staining as described above.
The effect of small molecules on biofilm persistence was tested. Two days biofilms were treated with compounds A and B as well as IDR-1018 and serine hydroxamate.
As described above, antibiotics affect bacterial cell survival in biofilms. Thus, the effect of antibiotic on biofilm persistence was tested. Ampicillin was applied on 2 days old biofilm and the amount of biofilm was analyzed after 18 h.

[1] = system: E. coli C biofilm formation; assay: Biofilm Inhibition Test (crystal violet, OD570/OD600); conditions: for effect on biofilm formation (crystal violet): 20 μg/mL
Experimental: Biofilm Inhibition Test—The biofilm inhibition was analyzed. For biofilm formation on a polystyrene surface, flat-bottom 96-well microtiter plates (Corning Inc.) were used. The effect of different compounds on biofilm formation was tested by adding compounds at specific concentrations to the bacterial culture (100× diluted overnight culture approx. 10^9 cells) in fresh LB medium. Two hundred microliters were aliquoted into 96 well plate and placed for 24 or 48 h into 37° C. incubator. Cell density was measured (OD600) using a Multiscan Go plate reader (ThermoFisher), and 30 μL of Gram crystal violet (Remel-3 g CV, 50 mL isopropanol, 50 mL ethanol and 900 mL of purified water) was applied for staining for 1 h. Plates were washed with water and air dried, and crystal violet was solubilized with an ethanol-acetone (4:1) solution. The OD570 was determined from this solution, and the biofilm amount was calculated as the ratio of OD570 to OD600. In order to check the effect of small molecules on biofilm formation, a biofilm inhibition experiment was designed. Compounds A and B were tested at concentration 20 μg/mL. The Innate defense regulator peptide-1018 (IDR-1018) (10 μg/mL) and serine hydroxamate (1 μg/mL) were also included.

E. coli C = assay: Bacterial growth curves in liquid culture (OD630); conditions: for effect on bacterial growth (growth curves): liquid culture, 30, 20, 10 and 5 μg/mL, OD630, 18 h, FIG. 2
Experimental: The bacterial strain of Escherichia coli strain C was used as the model organism for initial screening. A Luria-Bertani (LB-Miller) medium was used as the full medium. Once the biofilms were grown, compounds S3-[…] and S3-G1B were tested for their ability to degrade and inhibit biofilm growth. […] This is likely due to the fact that the stringent response and RelA are not active when the cells are initially grown. Bacterial Growth-The effect of different compounds on bacterial growth was tested by adding compounds at specific concentrations to the bacterial culture (100× diluted overnight culture approx. 10^9 cells) in fresh LB medium. Two hundred microliters were aliquoted into a 96 well plate and placed into Biotek HT plate reader for 18 h at 37° C. Plates were shaken and the optical density (OD630) was measured every 15 min. Antibiotic Susceptibility Test-The antibiotic susceptibility was tested. For the liquid cultures, the minimum inhibitory concentrations (MICs) of the antimicrobial drugs were determined using 96 well plates and the broth dilution method. Suspensions were then incubated at 37° C. for 18 hours in the Biotek HT plate reader (see bacterial growth). For biofilm, the Biofilm Destruction Test discussed below was used with different antibiotic concentrations and the cell density was measured after 18 h. Bacterial concentration was calculated through optical density (OD630), and the lowest concentration causing 80% growth inhibition relative to the growth of the control was deemed to be the MIC. In order to test the effect of compounds on bacterial growth, liquid culture experiments were performed. The S3-[…] compound (hereinafter “compound A”) and S3-G1B compound (hereinafter “compound B”) were applied to the bacterial cultures at the concentrations of 30, 20, 10 and 5 μg/mL. The differences in bacterial growth curves in liquid cultures fortified with the test compounds were measured. The Escherichia coli strain C is sensitive to all types of antibiotics. To test the MIC of ampicillin, a standard growth curve experiment was run with different concentrations of antibiotics. […] Inoculum at 1000× dilution of overnight culture.

E. Coli biofilms = assay: Synergistic effect of compounds combined with ampicillin on biofilm; conditions: in conjunction with ampicillin, FIG. 8
Experimental: The synergistic effect of compounds combined with antibiotics was tested. Biofilms were grown for 24, 48 or 72 h as described above. After that time planktonic cells were removed, and biofilms were washed twice with 250 μL of sterile phosphate buffered saline (PBS) solution. Two hundred microliters of fresh LB medium with specific concentration of the tested compounds and Ampicillin were dispensed into wells. After 18 h incubation at 37° C., the amount of biofilm was measured by CV staining as described above. For alamarBlue viability test, 4 μL of alamarBlue (Invitrogen) was added and plates were incubated in the Biotek HT plate reader at 37° C. for 4 h. Cell viability was measured as fluorescence at 530/590 nm (excitation/emission) versus compound concentration or initial cell density.
FIG. 8 highlights some of the data collected. […] As a positive control in these experiments IDR-1018 was utilized. IDR-1018 is a non-druggable antibiofilm peptide. IDR 1018 is a known biofilm disruptor that directly acts and degrades (p)ppGpp in cells (de la Fuente-Núñez 2014).

[2] = system: E. coli C cells in biofilm; assay: Antibiotic susceptibility of cells in biofilm (cell density after 18 h treatment); conditions: 18 h treatment of 2-day biofilm
Experimental: Antibiotic Susceptibility Test—The antibiotic susceptibility was tested. For the liquid cultures, the minimum inhibitory concentrations (MICs) of the antimicrobial drugs were determined using 96 well plates and the broth dilution method. Suspensions were then incubated at 37° C. for 18 hours in the Biotek HT plate reader (see bacterial growth). For biofilm, the Biofilm Destruction Test discussed below was used with different antibiotic concentrations and the cell density was measured after 18 h. Bacterial concentration was calculated through optical density (OD630), and the lowest concentration causing 80% growth inhibition relative to the growth of the control was deemed to be the MIC. Biofilm Destruction Test—The biofilm destruction was determined. Biofilms were grown for 24 or 48 h as described above. After that time planktonic cells were removed, and biofilms were washed twice with 250 μL of sterile phosphate buffered saline (PBS) solution. Two hundred microliters of fresh LB medium with specific concentration of the tested compounds were dispensed into wells. After 18 h incubation at 37° C., the amount of biofilm was measured by CV staining as described above. As cells in the biofilm tend to be more resistant to antibiotics, similar ampicillin concentration was tested to check the effect of 18 h antibiotic treatment on 2-day biofilm growth. […] At 40 μg/mL, a decrease in cell growth was observed of 15%. Starting from 50 μg/mL the cell density was reduced from 53% to 5% (at 90 μg/mL) of the untreated control.

Row | Compound | effect on biofilm persistence / survival (E. coli C biofilm) | effect on the initial growth of biofilms [1] | effect on biofilm formation (crystal violet) ([1]; FIG. 5B) | effect on bacterial growth (growth curves) (E. coli C) | biofilm concentration compared to biofilms treated with just antibiotics (E. Coli biofilms) | biofilm degradation compared with positive control IDR-1018 (E. Coli biofilms) | further results
1 | O=C(N[C@H](C(=O)O)c1ccc(Cl)cc1)c1cc(-c2ccc(O)cc2)n[nH]1 [Compound S3-G1A, (4-chlorophenyl)([(3-(4-hydroxyphenyl)-1H-pyrazol-5-yl]carbonyl)amino)acetic acid] | no significant effect | did not show any effect | slight increase | Neither compound showed any effect | decreasing the biofilm concentration significantly | outperform IDR-1018 | effect on bacterial growth (growth curves) (E. coli C; listed as A): no effect
2 | NC(CO)C(=O)NO (stereo not drawn) [Serine hydroxamate, serine hydroxamate, reference compound] | – | – | – | – | – | – | effect in biofilm inhibition experiment ([1]; 1 μg/mL, 24 h experiment): did not show any effect
3 | IDR-1018 [reference compound] | smaller effect on biofilm destruction than on biofilm inhibition | – | – | – | – | – | planktonic growth lower than the untreated control ([1]; 10 μg/mL, FIG. 5A): 63%; biofilm lower than the untreated control ([1]; 10 μg/mL, FIG. 5B): 45%
4 | CCCNc1ncc(-c2cc(-c3cc(C(=O)O)[nH]n3)nc(N)c2C#N)cn1 [Compound S3-G1B] | no significant effect | did not show any effect | slight increase | Neither compound showed any effect | decreasing the biofilm concentration significantly | outperform IDR-1018 | effect on bacterial growth (growth curves) (E. coli C; listed as B): no effect
5 | CC1(C)S[C@@H]2[C@H](NC(=O)[C@H](N)c3ccccc3)C(=O)N2[C@H]1C(=O)O [ampicillin] | – | – | – | – | – | – | decrease in cell growth ([2]; 40 μg/mL): 15%; cell density, % of the untreated control ([2]; 50 μg/mL): 53%; cell density, % of the untreated control ([2]; 90 μg/mL): 5%; increase in biofilm persistence (E. coli C biofilm; Amp 10 (10 μg/mL)): 1.7 fold; increase in biofilm persistence (E. coli C biofilm; Amp 70 (70 μg/mL)): 5.9 fold; effect on planktonic growth curve (E. coli C; low ampicillin concentrations, FIG. 3): bacteriostatic effect with a prolonged lag phase
